US10570121B2, “Substituted dihydroisoquinolinone compounds” (priority 2014, dated 2020)
Like-named read-outs stand apart in the source and are kept apart here.

Legend:
WT EZH2 = WT EZH2 (Homo sapiens (Human), UniProt Q15910); assay: WT EZH2 nucleosome assay (10X SAM, high SAM conditions); assay type: biochemical; conditions: 15 uM SAM, Ki app from competitive inhibition fit
Experimental: (§1) The genes for EZH2, EED, SUZ12, and RBBP4 proteins were cloned into pBacPAK9 vectors (Clontech). RBBP4 was FLAG tagged on the N-terminal end. The baculovirus expressions of these proteins were used to co-infect SF9 insect cells. Insect cell pellets were lysed in a buffer containing 25 mM Tris pH8.0, 300 mM NaCl, 0.5 mM TCEP, complete EDTA-free protease inhibitor (Roche), 0.1% NP-40. The supernatant from the lysate was incubated with FLAG® M2 antibody resin (Sigma). The resin was washed on the chromatography column and eluted with 0.2 mg/ml FLAG peptide. The elute was incubated with omnicleave nucleases (Epicentre Technologies) at 4° C. overnight, then concentrated and loaded onto a Superdex 200 (GE Healthcare) column. The Superdex 200 column was eluted with 25 mM Tris pH8.0, 150 mM NaCl, 0.5 mM TCEP. Fractions containing the PRC2 complex were pooled.
(§2) A. Compound preparation • 1.
(§3) B. Reagent preparation • 1. […] Dilute TCA to 20% in DI water
(§4) C. Enzyme reaction • 1. […] Some compounds were tested under high SAM conditions.
(§5) D. Data analysis • 1. IC50 values were determined by fitting the data to a 4-parameter IC50 equation using proprietary curve fitting software. • 2. For compounds tested under high SAM conditions, Ki^app values were obtained by fitting the dose response curve to a model for competitive inhibition using proprietary curve fitting software. Preparation of HeLa Oligonucleosomes: Reagents • Cell Pellet: 15 L HeLa S3 (Accelgen)+6 L HeLa S3 (in house) • Mnase (Worthington Biochemicals) Equipment • SW-28 Rotor • Dounce Homogenizer/B Pestle Buffers • Lysis: 20 mM Hepes pH 7.5, 0.25M Sucrose, 3 mM MgCl2, 0.5% Nonidet P-40, 0.5 mM TCEP, 1 Roche Protease Tablet • B: 20 mM Hepes pH7.5, 3 mM MgCl2, 0.5 mM EDTA, 0.5 mM TCEP, 1 Roche Protease Tablet • MSB: 20 mM Hepes pH7.5, 0.4 M NaCl, 1 mM EDTA, 5% v/v Glycerol, 0.5 mM TCEP, 0.2 mM PMSF • LSB: 20 mM Hepes pH7.5, 0.1M NaCl, 1 mM EDTA, 0.5 mM TCEP, 0.2 mM PMSF • NG: 20 mM Hepes pH7.5, 1 mM EDTA, 0.4 m NaCl, 0.2 mM PMSF, 0.5 mM TCEP • Storage: 20 mM Hepes pH7.5, 1 mM EDTA, 10% Glycerol, 0.2 mM PMSF, 0.5 mM TCEP Protocol

EZH2 Mutant Y641N = EZH2 Mutant Y641N (Homo sapiens (Human), UniProt Q15910, Y641N); assay: EZH2 Mutant Y641N nucleosome assay; assay type: biochemical; conditions: PRC2 4-protein complex 6 nM, 1.5 μM SAM, HeLa oligonucleosomes
Experimental: as §1, §2, §3, §4, §5

[1] = read-out: WT EZH2 Nucleosome assay (10X SAM) Ki
[2] = read-out: EZH2 Mutant Y641N Nucleosome assay IC50
[3] = WT EZH2 Nucleosome assay (10X SAM) Ki (μM)
[4] = EZH2 Mutant Y641N Nucleosome assay IC50 (μM)

Chain of WT EZH2 (Q15910 whole entry, looked up): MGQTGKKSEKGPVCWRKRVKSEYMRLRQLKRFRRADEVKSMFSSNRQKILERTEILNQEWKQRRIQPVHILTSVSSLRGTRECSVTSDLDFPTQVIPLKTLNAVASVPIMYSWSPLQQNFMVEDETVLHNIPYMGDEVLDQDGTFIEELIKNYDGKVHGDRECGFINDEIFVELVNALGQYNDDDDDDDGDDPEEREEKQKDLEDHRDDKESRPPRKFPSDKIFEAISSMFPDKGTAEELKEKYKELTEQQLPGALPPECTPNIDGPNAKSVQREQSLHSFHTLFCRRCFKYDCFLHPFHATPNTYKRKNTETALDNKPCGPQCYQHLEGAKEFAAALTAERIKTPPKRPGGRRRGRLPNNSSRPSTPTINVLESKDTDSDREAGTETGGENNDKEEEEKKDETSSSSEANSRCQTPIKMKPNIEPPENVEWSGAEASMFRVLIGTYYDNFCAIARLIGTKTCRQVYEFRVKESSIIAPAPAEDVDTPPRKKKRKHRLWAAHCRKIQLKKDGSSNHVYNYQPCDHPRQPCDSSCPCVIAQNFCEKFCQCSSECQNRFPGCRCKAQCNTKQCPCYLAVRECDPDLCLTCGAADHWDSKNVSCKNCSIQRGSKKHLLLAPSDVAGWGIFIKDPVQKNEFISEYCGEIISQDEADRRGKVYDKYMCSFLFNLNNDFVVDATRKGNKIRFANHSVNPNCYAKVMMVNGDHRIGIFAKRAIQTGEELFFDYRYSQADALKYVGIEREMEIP
Chain of WT EZH2 (O75530 whole entry partner, looked up): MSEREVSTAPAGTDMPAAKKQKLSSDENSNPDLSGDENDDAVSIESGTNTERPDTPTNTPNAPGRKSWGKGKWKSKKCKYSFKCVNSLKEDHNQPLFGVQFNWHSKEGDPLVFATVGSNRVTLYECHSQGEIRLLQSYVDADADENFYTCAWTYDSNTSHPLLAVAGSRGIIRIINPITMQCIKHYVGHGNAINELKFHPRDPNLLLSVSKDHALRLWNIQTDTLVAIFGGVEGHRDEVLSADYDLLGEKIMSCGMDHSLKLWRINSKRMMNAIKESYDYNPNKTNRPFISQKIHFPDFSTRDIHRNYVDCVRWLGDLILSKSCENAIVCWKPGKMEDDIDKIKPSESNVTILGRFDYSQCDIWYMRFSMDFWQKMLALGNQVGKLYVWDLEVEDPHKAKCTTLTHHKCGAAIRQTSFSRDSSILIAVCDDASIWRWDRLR
Chain of WT EZH2 (Q15022 whole entry partner, looked up): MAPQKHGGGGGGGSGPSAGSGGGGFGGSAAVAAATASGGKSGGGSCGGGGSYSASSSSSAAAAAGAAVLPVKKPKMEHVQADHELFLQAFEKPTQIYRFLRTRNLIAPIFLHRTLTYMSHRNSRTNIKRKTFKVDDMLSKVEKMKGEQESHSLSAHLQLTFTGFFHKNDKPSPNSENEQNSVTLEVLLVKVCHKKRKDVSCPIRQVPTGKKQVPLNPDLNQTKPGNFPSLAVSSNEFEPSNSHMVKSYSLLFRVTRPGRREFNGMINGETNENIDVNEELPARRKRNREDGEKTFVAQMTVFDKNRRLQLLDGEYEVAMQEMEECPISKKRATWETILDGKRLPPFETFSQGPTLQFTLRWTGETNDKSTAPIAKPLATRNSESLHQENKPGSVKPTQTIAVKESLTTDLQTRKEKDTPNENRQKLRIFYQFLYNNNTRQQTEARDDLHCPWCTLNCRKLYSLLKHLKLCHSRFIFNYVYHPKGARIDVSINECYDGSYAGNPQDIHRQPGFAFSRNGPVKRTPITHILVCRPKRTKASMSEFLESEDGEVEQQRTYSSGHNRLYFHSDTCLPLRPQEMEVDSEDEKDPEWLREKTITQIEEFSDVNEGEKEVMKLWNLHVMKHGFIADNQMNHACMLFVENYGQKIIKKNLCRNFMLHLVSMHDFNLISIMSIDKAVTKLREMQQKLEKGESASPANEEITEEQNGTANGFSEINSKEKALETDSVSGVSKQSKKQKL
Chain of WT EZH2 (Q09028 whole entry partner, looked up): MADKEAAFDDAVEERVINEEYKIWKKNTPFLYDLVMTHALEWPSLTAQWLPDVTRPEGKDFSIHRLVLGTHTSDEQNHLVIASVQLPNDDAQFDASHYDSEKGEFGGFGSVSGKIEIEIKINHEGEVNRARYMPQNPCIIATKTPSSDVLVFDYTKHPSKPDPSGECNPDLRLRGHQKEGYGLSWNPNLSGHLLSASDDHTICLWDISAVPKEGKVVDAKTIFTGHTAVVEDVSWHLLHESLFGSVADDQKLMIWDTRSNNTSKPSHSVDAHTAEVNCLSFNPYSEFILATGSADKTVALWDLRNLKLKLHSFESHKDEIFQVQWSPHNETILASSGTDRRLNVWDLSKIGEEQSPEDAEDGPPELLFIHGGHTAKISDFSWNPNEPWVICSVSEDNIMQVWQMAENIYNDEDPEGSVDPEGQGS
Chain of EZH2 Mutant Y641N (Q15910 whole entry Y641N, looked up): as the sequence (Q15910 whole entry, looked up) above, with Y641N counted along it
Chain of EZH2 Mutant Y641N (O75530 whole entry partner, looked up): as the sequence (O75530 whole entry partner, looked up) above
Chain of EZH2 Mutant Y641N (Q15022 whole entry partner, looked up): as the sequence (Q15022 whole entry partner, looked up) above
Chain of EZH2 Mutant Y641N (Q09028 whole entry partner, looked up): as the sequence (Q09028 whole entry partner, looked up) above

| SMILES | Ki (WT EZH2; [1]) | IC50 (EZH2 Mutant Y641N; [2]) | Ki (WT EZH2; [3]) | IC50 (EZH2 Mutant Y641N; [4]) |
| --- | --- | --- | --- | --- |
| Cc1cc(C)c(CN2CCc3c(Cl)cc(C(F)C4CCN(C(=O)CO)CC4)c(Cl)c3C2=O)c(=O)[nH]1 (single isomer, unassigned; (-)) [Example 9, (−)-5,8-dichloro-2-[(4,6-dimethyl-2-oxo-1,2-dihydropyridin-3-yl)methyl]-7-{fluoro[1-(hydroxyacetyl)piperidin-4-yl]methyl}-3,4-dihydroisoquinolin-1(2H)-one] | 5 nM | 0.035 µM |  |  |
| Cc1cc(C)c(CN2CCc3c(Cl)cc(C(CO)N4CC[C@@H](F)C4)c(Cl)c3C2=O)c(=O)[nH]1 (stereo partly drawn) [Example 5, 5,8-dichloro-2-[(4,6-dimethyl-2-oxo-1,2-dihydropyridin-3-yl)methyl]-7-{1-[(3R)-3-fluoropyrrolidin-1-yl]-2-hydroxyethyl}-3,4-dihydroisoquinolin-1(2H)-one] | 33 nM | 0.189 µM |  |  |
| COc1cc(C)[nH]c(=O)c1CN1CCc2c(Cl)cc(C(C)C3CN(C)C3)c(Cl)c2C1=O (single isomer, unassigned) [Example 87, 5,8-dichloro-2-[(4-methoxy-6-methyl-2-oxo-1,2-dihydropyridin-3-yl)methyl]-7-[1-(1-methylazetidin-3-yl)ethyl]-3,4-dihydroisoquinolin-1 (2H)-one] | 0.01 nM | 0.002 µM |  |  |
| Cc1cc(C)c(CN2CCc3c(Cl)cc(C(C)N4CCOCC4)c(Cl)c3C2=O)c(=O)[nH]1 (single isomer, unassigned; (+)) [Example 90, (+)-5,8-dichloro-2-[(4,6-dimethyl-2-oxo-1,2-dihydropyridin-3-yl)methyl]-7-[1-(morpholin-4-yl)ethyl]-3,4-dihydroisoquinolin-1(2H)-one] | 459 nM | 5.63 µM |  |  |
| Cc1cc(C)c(CN2CCc3c(Cl)cc([C@@H](CO)[C@H]4CCCO4)c(Cl)c3C2=O)c(=O)[nH]1 [Example 45] | 103 nM | 0.345 µM |  |  |
| Cc1cc(C)c(CN2CCc3c(Cl)cc(C(F)=C4CN(C(=O)CO)C4)c(Cl)c3C2=O)c(=O)[nH]1 [Example 79] | 17 nM | 0.133 µM |  |  |
| COc1cc(C)[nH]c(=O)c1CN1CCc2c(Cl)cc([C@H](OC)C3COC3)c(Cl)c2C1=O [Example 81, 5,8-dichloro-2-[(4-methoxy-6-methyl-2-oxo-1,2-dihydropyridin-3-yl)methyl]-7-[(R)-methoxy(oxetan-3-yl)methyl]-3,4-dihydroisoquinolin-1(2H)-one] | 0.2 nM | 0.003 µM |  |  |
| Cc1cc(C)c(CN2CCc3c(Cl)cc(C(C)N4CCOCC4)c(Cl)c3C2=O)c(=O)[nH]1 (racemic) [Example 89, (±)-5,8-dichloro-2-[(4,6-dimethyl-2-oxo-1,2-dihydropyridin-3-yl)methyl]-7-[1-(morpholin-4-yl)ethyl]-3,4-dihydroisoquinolin-1(2H)-one] | 8 nM | 0.088 µM |  |  |
| Cc1cc(OC(F)F)c(CN2CCc3c(Cl)cc(C(CO)C4CCOC4)c(Cl)c3C2=O)c(=O)[nH]1 (single isomer, unassigned) [Example 92] | 1 nM | 0.009 µM |  |  |
| Cc1cc(C)c(CN2CCc3c(Cl)cc(C(CO)N4CC[C@H](F)C4)c(Cl)c3C2=O)c(=O)[nH]1 (single isomer, unassigned) [Example 62] | 35 nM | 0.262 µM |  |  |
| CCC(OC)c1cc(Cl)c2c(c1Cl)C(=O)N(Cc1c(C)cc(C)[nH]c1=O)CC2 (single isomer, unassigned) [Example 15, 5,8-dichloro-2-[(4,6-dimethyl-2-oxo-1,2-dihydropyridin-3-yl)methyl]-7-(1-methoxypropyl)-3,4-dihydroisoquinolin-1(2H)-one] |  |  | 3 nM | 0.019 µM |
| COC(c1cc(Cl)c2c(c1Cl)C(=O)N(Cc1c(C)cc(C)[nH]c1=O)CC2)C(C)O (stereo not drawn) [Example 102] | 18 nM | 0.178 µM |  |  |

The next lines start with the values.

| Ki (WT EZH2; [1]) | IC50 (EZH2 Mutant Y641N; [2]) | Ki (WT EZH2; [3]) | IC50 (EZH2 Mutant Y641N; [4]) | SMILES |
| --- | --- | --- | --- | --- |
|  |  | 200 nM | 1.97 µM | [2H]C([2H])([2H])OC(c1cc(Cl)c2c(c1Cl)C(=O)N(Cc1c(C)cc(C)[nH]c1=O)CC2)C1CCN(C(=O)CO)CC1 (single isomer, unassigned) [Example 164] |
|  |  | 56 nM | 0.165 µM | COc1cc(C)[nH]c(=O)c1CN1CCc2c(Cl)cc(C(OC)C3CCOC3)c(Cl)c2C1=O (single isomer, unassigned) [Example 126] |
| 14 nM | 0.151 µM |  |  | Cc1cc(C)c(CN2CCc3c(Cl)cc(C(C)C4CN(C)C4)c(Cl)c3C2=O)c(=O)[nH]1 (single isomer, unassigned) [Example 188] |
| 70 nM | 0.272 µM |  |  | COc1cc(C)[nH]c(=O)c1CN1CCc2c(C)cc(C(OC)C3COC3)c(Cl)c2C1=O (single isomer, unassigned) [Example 145] |
|  |  | 58 nM | 0.892 µM | COc1cc(C)[nH]c(=O)c1CN1CCc2c(Cl)cc(C(OC)C3CCOC3)c(Cl)c2C1=O (single isomer, unassigned) [Example 124] |
| 1 nM | 0.041 µM |  |  | COC(c1cc(C)c2c(c1Cl)C(=O)N(Cc1c(C)cc(C)[nH]c1=O)CC2)C1CN(C2COC2)C1 (single isomer, unassigned) [Example 181] |
| 7 nM | 0.037 µM |  |  | COc1cc(C)[nH]c(=O)c1CN1CCc2c(Cl)cc(C(C)C3CCN(C(=O)CO)CC3)c(Cl)c2C1=O (single isomer, unassigned) [Example 201] |
| 46 nM | 0.216 µM |  |  | Cc1cc(C)c(CN2CCc3c(C)cc(C(C)C4COC4)c(Cl)c3C2=O)c(=O)[nH]1 (single isomer, unassigned) [Example 195] |
| 55 nM | 0.204 µM |  |  | COc1cc(C)[nH]c(=O)c1CN1CCc2c(Cl)cc(C(C3COC3)N(C)C)c(Cl)c2C1=O (single isomer, unassigned) [Example 203] |
| 159 nM | 1.33 µM |  |  | Cc1cc(OC(F)F)c(CN2CCc3c(Cl)cc(C(CO)C4CCOC4)c(Cl)c3C2=O)c(=O)[nH]1 (single isomer, unassigned) [Example 93] |
| 2 nM | 0.016 µM |  |  | COC(c1cc(Cl)c2c(c1Cl)C(=O)N(Cc1c(C)cc(C)[nH]c1=O)CC2)[C@H](C)CO (single isomer, unassigned) [Example 141] |
| 1 nM | 0.009 µM |  |  | COC(c1cc(Cl)c2c(c1Cl)C(=O)N(Cc1c(C)cc(C)[nH]c1=O)CC2)C1CC(=O)N(C)C1 (single isomer, unassigned) [Example 179] |
| 0.01 nM | 0.001 µM |  |  | COc1cc(C)[nH]c(=O)c1CN1CCc2c(C)cc(C(C)C3COC3)c(Cl)c2C1=O (single isomer, unassigned) [Example 198] |
| 1 nM | 0.01 µM |  |  | Cc1cc(C)c(CN2CCc3c(Cl)cc(C(C)C4CN(C)C4)c(Cl)c3C2=O)c(=O)[nH]1 (single isomer, unassigned) [Example 187] |
| 837 nM | 8.64 µM |  |  | COC(c1ccc2c(c1Cl)C(=O)N(Cc1c(C)cc(C)[nH]c1=O)CC2)C1CCOC1 (single isomer, unassigned) [Example 133] |
| 0.3 nM | 0.007 µM |  |  | Cc1cc(C)c(CN2CCc3c(C)cc(C(CO)C4CCOCC4)c(Cl)c3C2=O)c(=O)[nH]1 (single isomer, unassigned) [Example 101] |
| 673 nM | 7.77 µM |  |  | Cc1cc(C)c(CN2CCc3c(Cl)cc(C(CO)O[C@@H]4CCOC4)c(Cl)c3C2=O)c(=O)[nH]1 (single isomer, unassigned) [Example 104] |
| 309 nM | 3.73 µM |  |  | Cc1cc(C)c(CN2CCc3c(C)cc(C(CO)C4CCOCC4)c(Cl)c3C2=O)c(=O)[nH]1 (single isomer, unassigned) [Example 100] |
